Experimental findings from the Kinase Knowledgebase extract (Sharma et al. 2016) are described below.

Each structure is given as a SMILES string.

The target in the assay is PIK3CG (human) (UniProt P48736). Briefly: Assessment of PIK3CG Kinase Activity.
Sequence of PIK3CG (human) (P48736 whole entry, looked up): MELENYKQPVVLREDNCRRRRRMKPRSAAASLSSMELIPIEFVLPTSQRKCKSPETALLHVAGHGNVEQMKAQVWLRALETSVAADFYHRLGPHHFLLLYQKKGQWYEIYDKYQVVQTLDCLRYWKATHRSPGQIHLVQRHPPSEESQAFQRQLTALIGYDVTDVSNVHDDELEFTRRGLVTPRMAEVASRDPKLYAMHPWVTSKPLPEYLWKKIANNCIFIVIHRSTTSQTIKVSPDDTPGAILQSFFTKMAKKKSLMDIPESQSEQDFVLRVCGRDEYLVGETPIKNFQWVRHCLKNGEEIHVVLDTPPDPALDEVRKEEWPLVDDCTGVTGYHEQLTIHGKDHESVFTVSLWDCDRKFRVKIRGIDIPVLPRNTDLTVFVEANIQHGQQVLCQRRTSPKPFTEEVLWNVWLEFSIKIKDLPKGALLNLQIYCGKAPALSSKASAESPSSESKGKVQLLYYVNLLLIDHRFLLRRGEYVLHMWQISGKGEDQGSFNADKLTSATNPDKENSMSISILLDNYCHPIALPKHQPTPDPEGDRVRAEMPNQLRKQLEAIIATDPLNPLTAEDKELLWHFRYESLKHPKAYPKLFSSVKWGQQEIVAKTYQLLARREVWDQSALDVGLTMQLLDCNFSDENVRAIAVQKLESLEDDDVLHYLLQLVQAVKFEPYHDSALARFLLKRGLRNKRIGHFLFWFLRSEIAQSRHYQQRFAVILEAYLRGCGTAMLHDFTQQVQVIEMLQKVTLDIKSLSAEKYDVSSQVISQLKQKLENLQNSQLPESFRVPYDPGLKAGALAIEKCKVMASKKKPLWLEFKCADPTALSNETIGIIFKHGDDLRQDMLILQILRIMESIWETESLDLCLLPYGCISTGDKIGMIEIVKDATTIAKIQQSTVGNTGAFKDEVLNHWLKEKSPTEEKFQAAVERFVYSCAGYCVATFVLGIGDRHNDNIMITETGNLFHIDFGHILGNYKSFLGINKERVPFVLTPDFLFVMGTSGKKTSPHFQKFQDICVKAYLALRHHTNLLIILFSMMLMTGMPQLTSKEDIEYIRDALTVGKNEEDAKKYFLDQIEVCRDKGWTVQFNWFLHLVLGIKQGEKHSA

For orientation: IC50 means the concentration needed to halve the response being measured. Read a low IC50 as greater potency. In turn, `CC(C)(C)OC(=O)CCNC(=O)Nc1nc2c(s1)-c1c(c(C3CC3)nn1-c1ccccc1Cl)CC2` gave an IC50 of under 800 nM.
For `CC(C)(C)OC(=O)N1CCCC1CNC(=O)Nc1nc2c(s1)-c1c(c(Nc3ccccn3)nn1-c1ccccc1)CC2` (stereo not drawn) the value was under 800 nM.
`O=C(NCCCC(=O)N1CCOCC1)Nc1nc2c(s1)-c1c(c(-c3ccccc3)nn1-c1ccccc1Cl)CC2` displayed an IC50 of under 800 nM.
In the case of `CC(=O)N(C)c1cccc(CNC(=O)Nc2nc3c(s2)-c2c(c(-c4cccnc4)nn2C2CCN(C)CC2)CC3)c1` it was under 800 nM; in that of `CNC(=O)[C@@H](C)NC(=O)Nc1nc2c(s1)-c1c(c(-c3ccccc3)nn1-c1ccccc1Cl)CC2`, under 800 nM.
In the case of `Nc1c(Br)cc(OCC2CCN(C(=O)Nc3nc4c(s3)-c3c(c(-c5cccnc5)nn3-c3ccccc3Cl)CC4)C2)cc1Br` (stereo not drawn) it was under 800 nM.
In the case of `C[C@@H](C(=O)N1CC[C@H](CNC(=O)Nc2nc3c(s2)-c2c(c(-c4cncnc4)nn2-c2ccccc2Cl)CC3)C1)N(C)C(=O)OC(C)(C)C` it was under 800 nM.
As to `O=C(NCCn1ccnc1)Nc1nc2c(s1)-c1c(c(-c3cncnc3)nn1-c1ccccc1F)CC2`, the IC50 was under 800 nM.
In the case of `CC(C)(C)OC(=O)N1CCCC(CNC(=O)Nc2nc3c(s2)-c2c(c(-c4cccnc4)nn2-c2ccccc2Cl)CC3)C1` (stereo not drawn) it was under 800 nM; in that of `O=C(NC[C@H]1CCNC1)Nc1nc2c(s1)-c1c(c(-c3cncnc3)nn1-c1ccccc1Cl)CC2`, under 800 nM; in that of `O=C(NCc1cccc(N2CCNC2=O)c1)Nc1nc2c(s1)-c1c(c(-c3cncnc3)nn1-c1ccccc1Cl)CC2`, under 800 nM.
Compound `CC(C)c1noc(CCNC(=O)Nc2nc3c(s2)-c2c(c(-c4cccnc4)nn2C2CCN(C)CC2)CC3)n1` had an IC50 of under 800 nM.
In the case of `CN1CCN(C(=O)N2CCC[C@@H]2CNC(=O)Nc2nc3c(s2)-c2c(c(-c4cncnc4)nn2-c2ccccc2Cl)CC3)CC1` it was under 800 nM; in that of `O=C(NCc1ccc(-c2ncc[nH]2)cc1)Nc1nc2c(s1)-c1c(c(-c3cncnc3)nn1-c1ccccc1Cl)CC2`, under 800 nM.
For the compound `CCc1csc(CCNC(=O)Nc2nc3c(s2)-c2c(c(-c4cccnc4)nn2C2CCN(C4CCCC4)CC2)CC3)n1`, the IC50 was under 800 nM.
Regarding `O=C(NCc1cccc(CN2CCOCC2)n1)Nc1nc2c(s1)-c1c(c(-c3cncnc3)nn1-c1ccccc1Cl)CC2`, the IC50 was under 800 nM.
For `O=C(NCc1cccc(N2CCNC2=O)c1)Nc1nc2c(s1)-c1c(c(Nc3ccccn3)nn1-c1ccccc1)CC2`, the IC50 was under 800 nM.
The compound `C[C@@H](NC(=O)Nc1nc2c(s1)-c1c(c(-c3ccccc3)nn1-c1ccccc1Cl)CC2)C(=O)N1CCCCC1` yielded an IC50 of under 800 nM.
Take `Cn1ccnc1CNC(=O)Nc1nc2c(s1)-c1c(c(-c3cccnc3)nn1-c1ccccc1Cl)CC2`: the IC50 is under 800 nM.
Regarding `CC(C)(C)COC(=O)N1CCC[C@@H]1CNC(=O)Nc1nc2c(s1)-c1c(c(-c3cncnc3)nn1-c1ccccc1Cl)CC2`, the IC50 was under 800 nM.
In the case of `O=C(NCCN1CCOCC1)Nc1nc2c(s1)-c1c(c(-c3cncnc3)nn1-c1ccccc1F)CC2`, the IC50 is under 800 nM.
In the case of `Cc1ccc(CN2CC(CNC(=O)Nc3nc4c(s3)-c3c(c(-c5cccnc5)nn3-c3ccccc3Cl)CC4)CC2=O)cc1` (stereo not drawn) it was under 800 nM; in that of `CCOC(=O)CCCNC(=O)Nc1nc2c(s1)-c1c(c(-c3ccccc3)nn1-c1ccccc1Cl)CC2`, under 800 nM.
For `CCN(CC)CCNC(=O)Nc1nc2c(s1)-c1c(c(-c3cncnc3)nn1-c1ccccc1F)CC2` the value was under 800 nM; for `CC(=O)N(C)c1cccc(CNC(=O)Nc2nc3c(s2)-c2c(c(C4CC4)nn2-c2ccccc2Cl)CC3)c1`, under 800 nM.
In the case of `CC(C)(C)OC(=O)CNC(=O)Nc1nc2c(s1)-c1c(c(-c3cccnc3)nn1C1CCN(C3CCCC3)CC1)CC2` it was under 800 nM.
As to `CN(C(=O)OC(C)(C)C)C1CCN(C(=O)Nc2nc3c(s2)-c2c(c(-c4cccnc4)nn2-c2ccccc2Cl)CC3)C1` (stereo not drawn), the IC50 was under 800 nM.
For the compound `Cc1nc(C)c(S(=O)(=O)NCCNC(=O)Nc2nc3c(s2)-c2c(c(-c4ccccc4)nn2-c2ccccc2Cl)CC3)s1`, the 50% inhibitory concentration (IC50) is under 800 nM.
In the case of `CNC(=O)Nc1nc2c(s1)-c1c(c(-c3ccccc3)nn1-c1ccccc1Cl)CC2`, the IC50 is under 800 nM.
Turning to `NC(=O)c1ccc(CNC(=O)Nc2nc3c(s2)-c2c(c(-c4cncnc4)nn2-c2ccccc2Cl)CC3)cc1`, the 50% inhibitory concentration (IC50) was under 800 nM.
In the case of `CN(C)C(=O)CCNC(=O)Nc1nc2c(s1)-c1c(c(C3CC3)nn1-c1ccccc1Cl)CC2` it was under 800 nM; in that of `CC(=O)Nc1cccc(CNC(=O)Nc2nc3c(s2)-c2c(c(-c4cccnc4)nn2C2CCN(C4CCCC4)CC2)CC3)c1`, under 800 nM.
As to `CNC(=O)c1cccc(CNC(=O)Nc2nc3c(s2)-c2c(c(C4CC4)nn2-c2ccccc2Cl)CC3)c1`, the IC50 was under 800 nM.
In the case of `CC(C)S(=O)(=O)NCCNC(=O)Nc1nc2c(s1)-c1c(c(-c3ccccc3)nn1-c1ccccc1Cl)CC2` it was under 800 nM; in that of `CC(C)(C)OC(=O)NC1CCN(C(=O)Nc2nc3c(s2)-c2c(c(-c4cccnc4)nn2-c2ccccc2Cl)CC3)C1` (stereo not drawn), under 800 nM; in that of `O=C(NCCNS(=O)(=O)C(F)(F)F)Nc1nc2c(s1)-c1c(c(-c3ccccc3)nn1-c1ccccc1Cl)CC2`, under 800 nM.
Take `CC1(C)NC(=O)N(Cc2ccc(CNC(=O)Nc3nc4c(s3)-c3c(c(-c5cccnc5)nn3-c3ccccc3Cl)CC4)cc2)C1=O`: the IC50 is under 800 nM.
Regarding `O=C(NCCCN1CCNC1=O)Nc1nc2c(s1)-c1c(c(-c3cccnc3)nn1-c1ccccc1Cl)CC2`, the IC50 was under 800 nM.
Consider `CN1CCC(n2nc(-c3cccnc3)c3c2-c2sc(NC(=O)NCC(=O)N(C)C)nc2CC3)CC1`, for which the IC50 was under 800 nM.
For `CCN1CCC[C@@H]1CNC(=O)Nc1nc2c(s1)-c1c(c(-c3cccnc3)nn1-c1ccccc1Cl)CC2` the value was under 800 nM; for `CCc1cnc(CCNC(=O)Nc2nc3c(s2)-c2c(c(Nc4ccccn4)nn2-c2ccccc2)CC3)o1`, under 800 nM.
For `CN1CCC(n2nc(-c3cccnc3)c3c2-c2sc(NC(=O)NCc4cccc(N(C)C)c4)nc2CC3)CC1` the value was under 800 nM; for `O=C(NCCCn1ccnc1)Nc1nc2c(s1)-c1c(c(-c3cncnc3)nn1-c1ccccc1F)CC2`, under 800 nM; for `O=C(NCCn1cc[nH]c1=O)Nc1nc2c(s1)-c1c(c(-c3ccccc3)nn1-c1ccccc1Cl)CC2`, under 800 nM.
For `CCn1cnc(CCNC(=O)Nc2nc3c(s2)-c2c(c(-c4cccnc4)nn2-c2ccccc2Cl)CC3)c1` the value was under 800 nM; for `CN(C)S(=O)(=O)c1ccccc1CNC(=O)Nc1nc2c(s1)-c1c(c(-c3ccccc3)nn1-c1ccccc1Cl)CC2`, under 800 nM; for `O=C(Nc1nc2c(s1)-c1c(c(-c3cccnc3)nn1-c1ccccc1Cl)CC2)NC1CC1`, under 800 nM.
For `C[C@@H](NC(=O)Nc1nc2c(s1)-c1c(c(-c3ccccc3)nn1-c1ccccc1Cl)CC2)C(=O)N1CCN(C)CC1`, the IC50 is under 800 nM.
`O=C(NC[C@@H]1CCCN1)Nc1nc2c(s1)-c1c(c(-c3cncnc3)nn1-c1ccccc1Cl)CC2` showed an IC50 of under 800 nM.
For `CC(C)c1cccc(CNC(=O)Nc2nc3c(s2)-c2c(c(-c4cccnc4)nn2C2CCN(C)CC2)CC3)c1` the value was under 800 nM; for `O=C(Nc1nc2c(s1)-c1c(c(-c3cccnc3)nn1-c1ccccc1Cl)CC2)N1CCCC(c2ccccc2O)C1` (stereo not drawn), under 800 nM.
For `CC(C)(C)OC(=O)N1CCC[C@@H]1CNC(=O)Nc1nc2c(s1)-c1c(c(-c3ccccc3)nn1-c1ccccc1Cl)CC2` the value was under 800 nM.
`CCc1nnc(CCNC(=O)Nc2nc3c(s2)-c2c(c(-c4cccnc4)nn2-c2ccccc2Cl)CC3)o1` showed an IC50 of under 800 nM.
In the case of `O=C(NC[C@H]1CCCN1C(=O)Oc1ccccc1)Nc1nc2c(s1)-c1c(c(-c3cncnc3)nn1-c1ccccc1Cl)CC2` it was under 800 nM; in that of `CC(C)(C)OC(=O)N1CCC[C@@H]1CNC(=O)Nc1nc2c(s1)-c1c(c(-c3cncnc3)nn1-c1ccccc1Cl)CC2`, under 800 nM; in that of `CS(=O)(=O)c1cccc(CNC(=O)Nc2nc3c(s2)-c2c(c(-c4cncnc4)nn2-c2ccccc2Cl)CC3)c1`, under 800 nM.
For `CC(C)NC(=O)Nc1nc2c(s1)-c1c(c(-c3cccnc3)nn1-c1ccccc1Cl)CC2` the value was under 800 nM; for `CN(C)C(=O)CNC(=O)Nc1nc2c(s1)-c1c(c(-c3cccnc3)nn1C1CCN(C3CCCC3)CC1)CC2`, under 800 nM; for `CN(C)CC(=O)N1CC[C@H](CNC(=O)Nc2nc3c(s2)-c2c(c(-c4cncnc4)nn2-c2ccccc2Cl)CC3)C1`, under 800 nM.
Take `CCc1csc(CCNC(=O)Nc2nc3c(s2)-c2c(c(-c4cncnc4)nn2-c2ccccc2Cl)CC3)n1`: the IC50 is under 800 nM.
For `CN1CCN(Cc2ccc(NC(=O)Nc3nc4c(s3)-c3c(c(-c5cncnc5)nn3-c3ccccc3F)CC4)cc2)CC1` the value was under 800 nM; for `O=C(O)CC1(CNC(=O)Nc2nc3c(s2)-c2c(c(-c4cccnc4)nn2-c2ccccc2Cl)CC3)CCCCC1`, under 800 nM; for `O=C(NC[C@H]1CCCN1C(=O)OCc1ccccc1)Nc1nc2c(s1)-c1c(c(-c3cncnc3)nn1-c1ccccc1Cl)CC2`, under 800 nM.
In the case of `O=C(NCCCn1ccnc1)Nc1nc2c(s1)-c1c(c(-c3cncnc3)nn1-c1ccccc1Cl)CC2` it was under 800 nM; in that of `CN(C)CCNC(=O)Nc1nc2c(s1)-c1c(c(-c3cncnc3)nn1-c1ccccc1F)CC2`, under 800 nM; in that of `CN(C)C(=O)Nc1nc2c(s1)-c1c(c(-c3cncnc3)nn1-c1ccccc1F)CC2`, under 800 nM.
For `CC(C)(C)OC(=O)CCNC(=O)Nc1nc2c(s1)-c1c(c(Nc3ccccn3)nn1-c1ccccc1)CC2` the value was under 800 nM; for `COc1ccc(CCNC(=O)Nc2nc3c(s2)-c2c(c(-c4cncnc4)nn2-c2ccccc2Cl)CC3)cc1OC`, under 800 nM.
On to `CN(C)C(=O)Nc1nc2c(s1)-c1c(c(-c3cccnc3)nn1-c1ccccc1Cl)CC2`, for which the IC50 is under 800 nM.
In the case of `CNC(=O)Nc1nc2c(s1)-c1c(c(-c3ccccc3)nn1-c1cccc(Cl)c1)CC2` it was under 800 nM; in that of `CCc1csc(CCNC(=O)Nc2nc3c(s2)-c2c(c(-c4cccnc4)nn2C2CCN(C)CC2)CC3)n1`, under 800 nM.
Compound `CC(C)c1noc(CCNC(=O)Nc2nc3c(s2)-c2c(c(-c4ccccc4)nn2-c2cccc(Cl)c2)CC3)n1` had an IC50 of under 800 nM.
On to `CCc1cnc(CCNC(=O)Nc2nc3c(s2)-c2c(c(-c4cccnc4)nn2C2CCN(C)CC2)CC3)o1`, for which the IC50 is under 800 nM.
